From patent US12479830B2, “Homopiperazinyl and homopiperidinyl quinazolin-4(3H)-one derivatives having multimodal activity against pain” (ESTEVE PHARMACEUTICALS, S.A., priority 2019, dated 2025)
pKi: −log10 of the molar value.

What was measured:
[1] = biological target: T1, Human σ1 receptor (Homo sapiens, UniProt Q99720); test: Human σ1 receptor radioligand assay ([3H](+)-pentazocine binding); conditions: binding to the σ1 receptor, expressed as Ki class; + also covers inhibition between 1% and 50%
T1 construct: expressed in transfected cells; host or cells: HEK-293
T1 sequence (Q99720 whole entry): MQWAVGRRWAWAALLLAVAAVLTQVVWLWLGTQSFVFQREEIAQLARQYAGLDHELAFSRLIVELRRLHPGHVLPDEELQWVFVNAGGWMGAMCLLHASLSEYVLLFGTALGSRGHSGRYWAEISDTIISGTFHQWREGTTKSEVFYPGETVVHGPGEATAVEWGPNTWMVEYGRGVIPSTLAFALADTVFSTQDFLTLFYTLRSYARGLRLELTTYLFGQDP
Protocol: Human σ1 Receptor Radioligand Assay
Transfected HEK-293 membranes (7 μg) were incubated with 5 nM of [^3H](+)-pentazocine in assay buffer containing Tris-HCl 50 mM at pH 8. NBS (non-specific binding) was measured by adding 10 μM haloperidol. The binding of the test compound was measured at either one concentration (% inhibition at 1 or 10 μM) or five different concentrations to determine affinity values (Ki). Plates were incubated at 37° C. for 120 minutes. After the incubation period, the reaction mix was then transferred to MultiScreen HTS, FC plates (Millipore), filtered and plates were washed 3 times with ice-cold 10 mM Tris-HCL (pH7.4). Filters were dried and counted at approximately 40% efficiency in a MicroBeta scintillation counter (Perkin-Elmer) using EcoScint liquid scintillation cocktail.

[2] = biological target: Human α2δ-1 subunit of Cav2.2 calcium channel (Homo sapiens, UniProt P54289); test: Human α2δ-1 subunit of Cav2.2 calcium channel assay ([3H]-gabapentin binding); conditions: binding to the α2δ-1 subunit of voltage-gated calcium channels, expressed as Ki class; + also covers inhibition between 1% and 50%
Human α2δ-1 subunit of Cav2.2 calcium channel, sequence (P54289 25-1103): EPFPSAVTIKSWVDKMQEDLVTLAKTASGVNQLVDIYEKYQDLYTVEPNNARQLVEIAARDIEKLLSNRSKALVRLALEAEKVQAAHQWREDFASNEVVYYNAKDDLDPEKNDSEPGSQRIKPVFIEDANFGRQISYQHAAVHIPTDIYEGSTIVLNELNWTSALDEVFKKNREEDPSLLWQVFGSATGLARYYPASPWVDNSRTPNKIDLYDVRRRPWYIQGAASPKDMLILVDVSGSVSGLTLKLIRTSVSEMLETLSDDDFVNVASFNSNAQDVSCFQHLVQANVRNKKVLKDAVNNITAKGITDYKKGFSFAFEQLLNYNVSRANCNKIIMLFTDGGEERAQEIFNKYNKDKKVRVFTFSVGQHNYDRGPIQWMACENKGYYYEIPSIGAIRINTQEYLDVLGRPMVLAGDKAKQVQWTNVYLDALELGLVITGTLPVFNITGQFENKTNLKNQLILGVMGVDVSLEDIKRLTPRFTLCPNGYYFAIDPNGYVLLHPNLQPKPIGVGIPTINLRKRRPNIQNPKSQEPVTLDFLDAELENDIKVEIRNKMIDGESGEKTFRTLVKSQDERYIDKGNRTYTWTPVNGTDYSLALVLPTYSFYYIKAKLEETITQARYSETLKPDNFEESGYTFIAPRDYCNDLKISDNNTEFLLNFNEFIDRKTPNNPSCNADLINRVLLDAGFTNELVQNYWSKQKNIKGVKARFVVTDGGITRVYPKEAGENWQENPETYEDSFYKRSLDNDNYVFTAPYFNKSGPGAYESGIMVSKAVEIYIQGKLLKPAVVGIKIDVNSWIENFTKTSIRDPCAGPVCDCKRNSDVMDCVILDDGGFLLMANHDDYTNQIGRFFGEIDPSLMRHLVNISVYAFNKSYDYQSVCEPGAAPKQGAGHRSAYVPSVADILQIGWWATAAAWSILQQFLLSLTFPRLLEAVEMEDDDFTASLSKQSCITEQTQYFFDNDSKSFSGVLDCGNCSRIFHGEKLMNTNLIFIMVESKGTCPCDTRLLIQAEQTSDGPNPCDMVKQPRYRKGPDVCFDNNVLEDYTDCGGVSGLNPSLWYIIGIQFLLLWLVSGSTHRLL
Protocol: Human α2δ-1 Subunit of Cav2.2 Calcium Channel Assay
Human α2δ-1 enriched membranes (2.5 μg) were incubated with 15 nM of radiolabeled [^3H]-Gabapentin in assay buffer containing Hepes-KOH 10 mM. pH 7.4. NSB (non specific binding) was measured by adding 10 μM pregabalin. The binding of the test compound was measured at either one concentration (% inhibition at 1 or 10 μM) or five different concentrations to determine affinity values (Ki). After 60 min incubation at 27° C., binding reaction was terminated by filtering through Multiscreen GF/C (Millipore) presoaked in 0.5% polyethyleneimine in Vacuum Manifold Station, followed by 3 washes with ice-cold filtration buffer containing 50 mM Tris-HCl, pH 7.4. Filter plates were dried at 60° C. for 1 h and 30 μL of scintillation cocktail were added to each well before radioactivity reading. Readings were performed in a Trilux 1450 Microbeta radioactive counter (Perkin Elmer).

Compound	pKi [1]	pKi [2]
CCCC(c1nc2cnc(C(F)(F)F)cc2c(=O)n1CC)N1CCCN(C)CC1 (stereo not shown) [Example 192, 3-ethyl-2-(1-(4-methyl-1,4-diazepan-1-yl)butyl)-6-(trifluoromethyl)pyrido[3,4-d]pyrimidin-4(3H)-one]	< 6.00	> 6.30
CCC[C@H](c1nc2ccc(Br)cc2c(=O)n1CC)N1CCN2CCC1CC2 [Example 66, (R)-2-(1-(1,4-diazabicyclo[3.2.2]nonan-4-yl)butyl)-6-bromo-3-ethylquinazolin-4(3H)-one]	< 6.00	< 5.30
CCCC(c1nc2ccc(Cl)cc2c(=O)n1CCC)N1CCCN(CC)CC1 (stereo not shown) [Example 79, 6-chloro-2-(1-(4-ethyl-1,4-diazepan-1-yl)butyl)-3-propylquinazolin-4(3H)-one]	> 6.30	> 6.30
CCC[C@@H](c1nc2ccc(Br)cc2c(=O)n1CC)N1CCN(C)C[C@H](COC)C1 [Example 107, 6-bromo-3-ethyl-2-((S)-1-((S)-6-(methoxymethyl)-4-methyl-1,4-diazepan-1-yl)butyl)quinazolin-4(31-)-one]	6.00 to 6.30	5.30 to 6.30
CCC[C@@H](c1nc2cc(F)c(Cl)cc2c(=O)n1CC)N1CCN(C)C[C@@H](C)C1 [Example 138, 6-chloro-2-((S)-1-((R)-4,6-dimethyl-1,4-diazepan-1-yl)butyl)-3-ethyl-7-fluoroquinazolin-4 (3H)-one]	6.00 to 6.30	< 5.30
CCC[C@H](c1nc2ccc(Br)cc2c(=O)n1CC)N1CCN(C)C[C@@H](COC)C1 [Example 106, 6-bromo-3-ethyl-2-((R)-1-((R)-6-(methoxymethyl)-4-methyl-1,4-diazepan-1-yl)butyl)quinazolin-4(3H)-one]	< 6.00	> 6.30
CCC[C@H](c1nc2ccc(F)cc2c(=O)n1CCC(C)C)N1CCCN(C)CC1 [Example 226, (R)-6-fluoro-3-isopentyl-2-(1-(4-methyl-1,4-diazepan-1-yl)butyl)quinazolin-4(3H)-one]	> 6.30	< 5.30
CCC[C@H](c1nc2ccc(F)cc2c(=O)n1C)N1CCCN(C)CC1 [Example 216, (R)-6-fluoro-3-methyl-2-(1-(4-methyl-1,4-diazepan-1-yl)butyl)quinazolin-4(3H)-one]	> 6.30	5.30 to 6.30
CCC[C@@H](c1nc2cc(F)c(Cl)cc2c(=O)n1CC)N1CCNC[C@H](C)C1 [Example 120, 6-chloro-3-ethyl-7-fluoro-2-((S)-1-((S)-6-methyl-1,4-diazepan-1-yl)butyl)quinazolin-4(3H)-one]	< 6.00	< 5.30
CCCC(c1nc2ccc(Cl)cc2c(=O)n1CC)N1CCCNCC1 (stereo not shown) [Example 22, 2-(1-(1,4-diazepan-1-yl)butyl)-6-chloro-3-ethylquinazolin-4(3H)-one]	< 6.00	> 6.30
CCCC(c1nc2ccc(Br)c(Cl)c2c(=O)n1CC)N1CCCN(CC)CC1 (stereo not shown) [Example 83, 6-bromo-5-chloro-3-ethyl-2-(1-(4-ethyl-1,4-diazepan-1-yl)butyl)quinazolin-4(3H)-one]	> 6.30	< 5.30
CCC[C@H](c1nc2ccc(Br)cc2c(=O)n1CC)N1CC[C@H](C)N(C)CC1 [Example 262]	6.00 to 6.30	> 6.30
CCC[C@@H](c1nc2cc(F)c(Br)cc2c(=O)n1CC)N1CCCNCC1 [Example 158, (S)-2-(1-(1,4-diazepan-1-yl)butyl)-6-bromo-3-ethyl-7-fluoroquinazolin-4(3H)-one]	< 6.00	< 5.30
CCCC(c1nc2ncc(F)cc2c(=O)n1CC1CC1)N1CCN[C@@H](C)CC1 (single isomer, unassigned) [Example 194]	< 6.00	< 5.30
CCCC(c1nc2ccc(Br)cc2c(=O)n1CC)N1CCCN(C)CC1 (stereo not shown) [Example 1, 6-Bromo-3-ethyl-2-(1-(4-methyl-1,4-diazepan-1-yl)butyl)quinazolin-4(3H)-one]	> 6.30	> 6.30
CCCC(c1nc2ccc(Br)c(F)c2c(=O)n1CC)N1CCCN(C)CC1 (stereo not shown) [Example 51, 6-bromo-3-ethyl-5-fluoro-2-(1-(4-methyl-1,4-diazepan-1-yl)butyl)quinazolin-4(3H)-one]	> 6.30	–

The next lines start with the values.

pKi [1]	pKi [2]	Compound
6.00 to 6.30	< 5.30	CCCC(c1nc2ccc(Br)cc2c(=O)[nH]1)N1CCCN(C)CC1 (stereo not shown) [Example 122, 6-bromo-2-(1-(4-methyl-1,4-diazepan-1-yl)butyl)quinazolin-4(3H)-one]
< 6.00	> 6.30	CCC[C@H](c1nc2ncc(F)cc2c(=O)n1CC1CC1)N1CCN[C@@H](C)CC1 [Example 195, 3-(cyclopropylmethyl)-6-fluoro-2-((R)-1-((S)-5-methyl-1,4-diazepan-1-yl)butyl)pyrido[2,3-d]pyrimidin-4(3H)-one]
6.00 to 6.30	> 6.30	CCC[C@H](c1nc2cc(F)c(OC)cc2c(=O)n1CC)N1CCN(C)C[C@H](C)C1 [Example 238, 2-((R)-1-((S)-4,6-dimethyl-1,4-diazepan-1-yl)butyl)-3-ethyl-7-fluoro-6-methoxyquinazolin-4(3H)-one]
< 6.00	> 6.30	CCC[C@H](c1nc2cc(F)c(Br)cc2c(=O)n1CC)N1CCCNCC1 [Example 157, (R)-2-(1-(1,4-Diazepan-1-yl)butyl)-6-bromo-3-ethyl-7-fluoroquinazolin-4(3H)-one]
< 6.00	< 5.30	CCCC(c1nc2ccc(Br)cc2c(=O)n1CC)N1CCN(C)CC(C)(C)C1 (stereo not shown) [Example 30, 6-bromo-3-ethyl-2-(1-(4,6,6-trimethyl-1,4-diazepan-1-yl)butyl)quinazolin-4(3H)-one]
< 6.00	> 6.30	CCCC(c1nc2ccc(Br)c(F)c2c(=O)n1CC)N1CCCNCC1 (stereo not shown) [Example 59, 2-(1-(1,4-diazepan-1-yl)butyl)-6-bromo-3-ethyl-5-fluoroquinazolin-4(3H)-one]
> 6.30	5.30 to 6.30	CCC[C@H](c1nc2ccc(C(F)(F)F)cc2c(=O)n1CC)N1CCN[C@H](C)CC1 [Example 258, 3-ethyl-2-((R)-1-((R)-5-methyl-1,4-diazepan-1-yl)butyl)-6-(trifluoromethyl)quinazolin-4(3H)-one]
> 6.30	> 6.30	CCCC(c1nc2cc(Br)c(F)cc2c(=O)n1CC)N1CCCN(C)CC1 (stereo not shown) [Example 33, 7-bromo-3-ethyl-6-fluoro-2-(1-(4-methyl-1,4-diazepan-1-yl)butyl)quinazolin-4(3H)-one]
6.00 to 6.30	< 5.30	CCCC(c1nc2c(C)cc(Br)cc2c(=O)n1CC)N1CCCN(C)CC1 (stereo not shown) [Example 25, 6-bromo-3-ethyl-8-methyl-2-(1-(4-methyl-1,4-diazepan-1-yl)butyl)quinazolin-4(3H)-one]
< 6.00	> 6.30	CCCC(c1nc2cc(F)c(F)cc2c(=O)n1CC)N1CCCNCC1 (stereo not shown) [Example 45, 2-(1-(1,4-diazepan-1-yl)butyl)-3-ethyl-6,7-difluoroquinazolin-4(3H)-one]
< 6.00	5.30 to 6.30	CCCC(c1nc2ncccc2c(=O)n1CC)N1CCCNCC1 (stereo not shown) [Example 179, 2-(1-(1,4-diazepan-1-yl)butyl)-3-ethylpyrido[2,3-d]pyrimidin-4(3H)-one]
> 6.30	5.30 to 6.30	CCCC(c1nc2ccc(Br)c(C)c2c(=O)n1CC)N1CCCN(CC)CC1 (stereo not shown) [Example 47, 6-bromo-3-ethyl-2-(1-(4-ethyl-1,4-diazepan-1-yl)butyl)-5-methylquinazolin-4(3H)-one]
